Experimental data taken from patent US20050042213A1, “Methods and pharmaceutical compositions for modulating heparanase activation and uses thereof” (InSight Biopharmaceuticals Ltd., priority 2003, published 2005).
Where a SMILES comes first, the peptide text is derived from it. [ ]: non-standard residue; d: D form. The star is where a group is joined. Sta = CC(C)C[C@H](N)[C@@H](O)CC(=O)O; Isovaleryl = CC(C)CC(=O)*

Experiments:
293 cell extract = experiment: Cleavage of Z-Pro-Lys-Lys-Glu-AMC (Peptide 1) by 293 cell extract and its inhibition by protease inhibitors; format: biochemical, human; set-up: % Inhibition: concentration or dose not given beside the values; settings: inhibition of Z-Pro-Lys-Lys-Glu-AMC cleavage by 293 cell extract
Experimental: Following a 20 minutes incubation at 37° C., fluorescence released due to proteolytic activity was determined using a BMG POLARstar™ Galaxy fluorometer: excitation at 390 nm and emission at 460 nm.

pro-heparanase (H60) [1] = target: T1, pro-heparanase (H60) (Homo sapiens, UniProt Q9Y251, K307R); experiment: Processing and activation of pro-heparanase in vitro with cathepsin B and D in the presence of heparin (Western blot, DMB assay); format: biochemical; settings: cathepsin B and/or cathepsin D; for activation of pro-heparanase in vitro (heparanase activity): heparin-sepharose
T1 sequence (Q9Y251 36-543 K307R): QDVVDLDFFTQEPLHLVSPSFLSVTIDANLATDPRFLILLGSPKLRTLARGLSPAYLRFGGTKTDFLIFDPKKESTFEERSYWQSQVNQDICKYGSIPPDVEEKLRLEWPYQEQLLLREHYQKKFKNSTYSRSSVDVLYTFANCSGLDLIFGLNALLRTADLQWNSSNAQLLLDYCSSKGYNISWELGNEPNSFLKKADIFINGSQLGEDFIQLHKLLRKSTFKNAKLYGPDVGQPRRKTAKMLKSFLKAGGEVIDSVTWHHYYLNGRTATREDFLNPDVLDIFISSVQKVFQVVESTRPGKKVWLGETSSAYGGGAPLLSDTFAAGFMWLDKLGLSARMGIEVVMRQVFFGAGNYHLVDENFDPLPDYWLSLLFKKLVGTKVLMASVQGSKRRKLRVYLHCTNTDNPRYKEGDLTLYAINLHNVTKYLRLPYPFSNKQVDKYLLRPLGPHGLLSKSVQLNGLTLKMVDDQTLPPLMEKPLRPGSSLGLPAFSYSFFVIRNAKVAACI
Experimental: Western blot analysis—Western blot analysis was performed using rabbit anti-heparanase polyclonal antibodies as described in U.S. Pat. Nos. 6,177,545; 6,531,129; and 6,562,950.
Following a 17 hours incubation at room temperature, reaction products were filtered to a new plate and quantified using di-methyl-methylene-blue, as described in U.S. Pat. No. 6,190,875.
Assay mixtures contained heparin (Sigma, H3393) or heparinomimetic molecules ethane-1,2-disulfonic acid (Sigma, E2269) and heparin disaccharide IVA (Sigma, H0895) for western blot analysis or heparin sepharose beads for activation assays, in 200 mM acetate buffer, pH 5.5, 4 mM EDTA and 8 mM DTT, with either Cathepsin B, Cathepsin D or both. Following a 17 hours of incubation at room temperature, reaction products were examined by western blot analysis or filtered to a new plate and quantified using di-methyl-methylene-blue, as described in U.S. Pat. No. 6,190,875 for activation assay.

Cathepsin B = settings: value reported in the literature (M. Murata et al., FEBS Lett., 280, 307, 1991); cited from earlier work
pro-heparanase (H60) [2] = target: T1, pro-heparanase (H60); experiment: Pro-heparanase activation in a cell-based assay (293 cells, DMB assay); settings: inhibition of pro-heparanase activation (H60); Table 15
β-FGF = target: T2, β-FGF (Homo sapiens, UniProt P09038); experiment: Elisa assay for binding of β-FGF to heparin; settings: inhibition of β-FGF binding to heparin
T2 construct: purchased Sigma F0291
Experimental: Elisa assay for determination of binding of β-FGF to heparin—96 well microplates were coated overnight with Heparin-albumin (Lizard) and blocked with 1% BSA in PBS with 0.05% Tween and 0.01% thimerosal for 2 hrs. β-FGF was added to the plates at a concentration of 0.8 ng/ml and incubated for 45 min at 23-25° C. The amount of β-FGF bound to heparin was detected using anti-FGF monoclonal antibody (Sigma Cat. # F6162) at a concentration of 2.5 ng/ml and secondary antibodies Sheep anti-mouse IgG linked to horseradish peroxidase (1:3000). TMB (Pierce Cat. #34021) was used as a substrate for peroxidase.
(§1) The plates were read at 450 nm with a reference wavelength of 630 nm using a VERSAmax plate reader. […] Percent inhibition was calculated as compared with the control reactions pre-incubated with 1% DMSO only.

VEGF = target: T3, VEGF (Homo sapiens, UniProt P15692); experiment: Elisa assay for binding of VEGF to heparin; settings: inhibition of VEGF binding to heparin
T3 sequence (P15692 27-191 isoform P15692-4): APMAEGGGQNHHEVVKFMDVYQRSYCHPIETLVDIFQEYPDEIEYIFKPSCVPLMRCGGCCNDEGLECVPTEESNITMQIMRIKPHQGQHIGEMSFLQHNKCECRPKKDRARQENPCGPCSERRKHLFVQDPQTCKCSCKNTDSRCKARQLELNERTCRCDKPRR
Experimental: Elisa assay for determination of binding of VEGF to heparin—96 well microplates were coated overnight with Heparin-albumin (Lizard) and blocked with 1% BSA in PBS with 0.05% Tween and 0.01% thimerosal for 2 hrs. VEGF was added to the plates at a concentration of 2 ng/ml and incubated for 45 min. at 23-25° C. The amount of VEGF bound to heparin was detected using anti-VEGF monoclonal antibody (Sigma Cat. # V4758) at a concentration of 0.26 μg/ml and secondary antibodies Sheep anti-mouse IgG linked to horseradish peroxidase (1:2000). TMB (Pierce Cat. #34021) was used as a substrate for peroxidase.
as §1

heparanase (H53) = target: T4, heparanase (H53) (Homo sapiens, UniProt Q9Y251, K307R); experiment: Heparanase activity inhibition (H53), DMB assay; format: biochemical; settings: for IC50: heparanase activity inhibition (H53), NI = no inhibition
T4 sequence (Q9Y251 158-543 K307R limits assumed): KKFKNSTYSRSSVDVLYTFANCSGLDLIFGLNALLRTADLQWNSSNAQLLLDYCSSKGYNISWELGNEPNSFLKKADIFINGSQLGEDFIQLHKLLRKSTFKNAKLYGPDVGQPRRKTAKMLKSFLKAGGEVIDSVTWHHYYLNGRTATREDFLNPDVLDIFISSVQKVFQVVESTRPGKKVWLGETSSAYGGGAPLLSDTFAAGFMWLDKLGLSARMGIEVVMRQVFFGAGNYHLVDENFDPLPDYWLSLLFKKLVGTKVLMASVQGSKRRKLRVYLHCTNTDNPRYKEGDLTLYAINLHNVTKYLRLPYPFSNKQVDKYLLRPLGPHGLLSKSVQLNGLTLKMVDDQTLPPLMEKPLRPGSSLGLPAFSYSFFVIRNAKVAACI
T4 sequence (Q9Y251 36-109 limits assumed): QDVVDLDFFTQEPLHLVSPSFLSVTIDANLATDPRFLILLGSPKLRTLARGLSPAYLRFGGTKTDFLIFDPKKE
Experimental: At the end of the incubation, the cells were lysed by three consecutive cycles of freezing and thawing in a −80° C. Freezer and a 37° C. shaker. Formation of active heparanase was detected by determination of heparanase activity in DMB assay as described in patent application U.S. Pat. No. 6,190,875B.

HUVEC cells = experiment: Cord Formation Assay; format: cell-based; settings: Homo sapiens; HUVEC cells on matrigel, 24 h; read-out: Inhibition of cord formation IC50
Experimental: (§2) Cord formation and cell migration assays were executed following explicit directives provided by the inventors of the present invention by the National Cancer Institute (Biological Testing Branch, Developmental Therapeutics Program, DCTD, NCI, Fairview Center, Suite 205, 1003 West 7th Street, Frederick, Md. 21701-8527).
Cord Formation Assay—Matrigel (60 μl of 10 mg/ml; Collaborative Lab # 35423) was placed in each well of an ice-cold 96-well plate. The plate was incubated at room temperature for 15 minutes and then transferred to 37° C. for 30 minutes to permit matrigel polymerization. Concomitantly with plate coating, HUVEC cells were diluted in EGM-2 (Clonetic # CC3162) at a concentration of 2×10^5 cells/ml. Each test compound was prepared at a 2 fold higher concentration than desired (5 concentration levels) using the same medium. Cells (500 μl) and 2× drug (500 μl) were mixed and 200 μl of this suspension were placed in duplicates on the polymerized matrigel. Following 24 h incubation, triplicate pictures were taken for each concentration using a Bioquant Image Analysis system. Drug effect (IC50) was assessed by comparing to untreated controls and measuring the length of cords formed and number of junctions.

HUVEC cell = experiment: Cell Migration Assay (Boyden chamber); format: cell-based; settings: Homo sapiens, HUVEC cells, 5 h, read-out: Inhibition of chemotaxis IC50
Experimental: as §2
Cell Migration Assay—Migration was assessed using a 48-well Boyden chamber including 8 μm pore size collagen-coated (10 μg/ml rat tail collagen; Collaborative Laboratories) polycarbonate filters (Osmonics, Inc.). The bottom chamber wells included 27-29 μl of DMEM medium alone (baseline) or medium containing chemo-attractant (bFGF, VEGF or Swiss 3T3 cell conditioned medium). The top chambers included 45 μl of HUVEC cell suspension (1×10^6 cells/ml) prepared in DMEM+1% BSA with or without the test compound. Followinf 5 h of incubation at 37° C., the membrane was rinsed with PBS, fixed and stained in Diff-Quick solutions. The filter was placed on a glass slide with the migrated cells facing down and cells on top were removed using a Kimwipe. The testing was performed in 4-6 replicates where five fields were counted from each well. Negative unstimulated control values were subtracted from stimulated control and drug treated values. Data wad plotted as mean migrated cell±S.D. IC50 was calculated from the plotted data.

T2 sequence (P09038 143-288): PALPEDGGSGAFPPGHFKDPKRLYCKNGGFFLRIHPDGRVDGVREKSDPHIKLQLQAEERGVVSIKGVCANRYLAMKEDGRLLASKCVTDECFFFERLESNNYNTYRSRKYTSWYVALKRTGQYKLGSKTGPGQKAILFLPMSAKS

| IC50 (pro-heparanase (H60) [2]) [nM] | IC50 (β-FGF) [µM] | IC50 (VEGF) [µM] | processing of pro-heparanase in vitro (Western blot) (pro-heparanase (H60) [1]) | Structure (SMILES) | also measured |
| --- | --- | --- | --- | --- | --- |
|  |  |  |  | CCCNC(=O)[C@H]1O[C@@H]1C(=O)N[C@H](C(=O)N1CCC[C@H]1C(=O)O)[C@@H](C)CC [CA-074] | % Inhibition (293 cell extract): 96%; activation of pro-heparanase in vitro (heparanase activity) (pro-heparanase (H60) [1]): inhibited this activation; IC50 (Cathepsin B): […] |
| 160 | 53.4 | 17.8 |  | O=C(O)CCCN1C(=O)C(=Cc2ccc(-c3cccc([N+](=O)[O-])c3)o2)SC1=S [Compound 4] | heparanase activity inhibition (H53) in addition to inhibition of pro-heparanase activation (heparanase (H53)): dual activity; IC50 (heparanase (H53)): 3 µM |
| 870 | 23.9 | 17.8 |  | O=C(O)CCCN1C(=O)C(=Cc2ccc(-c3ccc(Cl)cc3)o2)SC1=S [Compound 6] | heparanase activity inhibition (H53) in addition to inhibition of pro-heparanase activation (heparanase (H53)): dual activity; IC50 (heparanase (H53)): 36 µM; IC50 (HUVEC cells): 3200 nM; IC50 (HUVEC cell): 4000 nM |
| 920 | 0.2 | 0.2 |  | COCCCN1C(=O)C(=Cc2ccc(-c3ccc(Cl)cc3)o2)SC1=S [Compound 58] |  |
| 240 | 0.4 | 0.4 |  | O=C1/C(=C\c2ccc(-c3ccccc3Cl)o2)SC(=S)N1C1CCS(=O)(=O)C1 (stereo not shown) [Compound 59] | IC50 (HUVEC cells): 400 nM; IC50 (HUVEC cell): 250 nM |
|  |  |  | allowed processing of the H60 | O=S(=O)(O)CCS(=O)(=O)O [Compound E2269, ethane-1,2-disulfonic acid] |  |
|  |  |  | allowed processing of the H60 | CC(=O)N[C@H]1C(O)O[C@H](CO)[C@@H](O[C@@H]2OC(C(=O)O)=C[C@H](O)[C@H]2O)[C@@H]1O (stereo partly shown) [heparin disaccharide IVA] |  |
|  |  |  | No processing occurred | CC(C)CC(=O)N[C@H](C(=O)N[C@H](C(=O)N[C@@H](CC(C)C)[C@@H](O)CC(=O)N[C@@H](C)C(=O)N[C@@H](CC(C)C)[C@@H](O)CC(=O)O)C(C)C)C(C)C [pepstatin] (Isovaleryl-VV[Sta]A[Sta]-OH) | % Inhibition (293 cell extract): 0%; activation of pro-heparanase in vitro (heparanase activity) (pro-heparanase (H60) [1]): inhibited this activation |
